According to ChEMBL document CHEMBL6120978, “Anticancer activity of salinomycin quaternary phosphonium salts” (Eur J Med Chem, 2025):
The source made the active and inactive calls. No cut-off for these calls is given here.

Legend:
Mitochondrial membrane [1] = test: Induction of mitochondrial membrane potential loss in human A549 cells assessed as red fluorescence at IC50 incubated for 48 hrs MitoTrackerRed CMXRos staining based flow cytometry analysis (reference value: 91.1 %); format: cell membranes
[2] = Selectivity index, ratio of IC50 for cytotoxicity against chinese hamster V79 cells to IC50 for cytotoxicity against human SW480 cells; format: toxicity, cell-based; conditions: V79 cells versus SW480 cells, read-out: Ratio IC50
[3] = Cytotoxicity against chinese hamster V79 cells incubated for 72 hrs by MTT assay; format: toxicity, cell-based, Cricetulus griseus
A549 [4] = test: Effect on mitochondrial function in human A549 cells assessed as increase in MTRed CMXRos positive cells at IC50 incubated for 48 hrs by MitoTracker Red CMXRos staining based flow cytometry analysis relative to control; format: functional
MDA-MB-231 [5] = test: Effect on mitochondrial function in human MDA-MB-231 cells assessed as fold increase in mean fluorescence intensity at IC50 incubated for 48 hrs by MitoTracker Red CMXRos staining based flow cytometry analysis relative to control; format: functional
SW-620 = test: Cytotoxicity against human SW620 cells incubated for 72 hrs by MTT assay; format: functional, cell-based; conditions: SW-620, 72 h
MDA-MB-231 [6] = test: Induction of cell cycle arrest in human […] cells assessed as accumulation of cells at G0/G1 phase at IC50 incubated for 24 hrs by propidium iodide staining based flow cytometry analysis (reference value: 50.9 %); format: functional
A549 [7] = test: Induction of cell cycle arrest in human A549 cells assessed as accumulation of cells at G0/G1 phase at IC50 incubated for 24 hrs by propidium iodide staining based flow cytometry analysis (reference value: 54.3 %); format: functional
MDA-MB-231 [8] = test: Induction of apoptosis in human MDA-MB-231 cells assessed as late apoptotic cells at IC50 incubated for 72 hrs by Annexin V-FITC staining based flow cytometry analysis (reference value: 3.07 %); format: functional
[9] = tested on: Staphylococcus epidermidis; test: Antimicrobial activity against Staphylococcus epidermidis ATCC 12228 incubated for 18 hrs by twofold microdilution method; format: functional
MDA-MB-231 [10] = test: Induction of apoptosis in human MDA-MB-231 cells assessed as necrotic cells at IC50 incubated for 72 hrs by Annexin V-FITC staining based flow cytometry analysis (reference value: 1.17 %); format: functional
[11] = Selectivity index, ratio of IC50 for cytotoxicity against human HaCaT cells to IC50 for cytotoxicity against human MDA-MB-231 cells; format: toxicity, cell-based; conditions: HaCaT cells versus MDA-MB-231 cells, read-out: Ratio IC50
A549 [12] = test: Induction of cell cycle arrest in human A549 cells assessed as accumulation of cells at G2 phase at IC50 incubated for 24 hrs by propidium iodide staining based flow cytometry analysis (reference value: 20.8 %); format: functional
Staphylococcus aureus [13] = test: Antimicrobial activity against Staphylococcus aureus ATCC 29213 incubated for 18 hrs by twofold microdilution method; format: functional
MDA-MB-231 [14] = test: Induction of apoptosis in human MDA-MB-231 cells assessed as early apoptotic cells at IC50 incubated for 72 hrs by Annexin V-FITC staining based flow cytometry analysis (reference value: 4.23 %); format: functional
MDA-MB-231 [15] = test: Induction of cell cycle arrest in human […] cells assessed as accumulation of cells at S phase at IC50 incubated for 24 hrs by propidium iodide staining based flow cytometry analysis; format: functional
A549 [16] = test: Cytotoxicity against human A549 cells incubated for 72 hrs by MTT assay; format: functional, cell-based; conditions: A549, 72 h
MDA-MB-231 [17] = test: Induction of apoptosis in human MDA-MB-231 cells assessed as viable cells at IC50 incubated for 72 hrs by Annexin V-FITC staining based flow cytometry analysis (reference value: 91.53 %); format: functional
A549 [18] = test: Effect on mitochondrial mass in human A549 cells assessed as increase in MTGreen positive cells at IC50 incubated for 48 hrs by MitoTracker Green FM staining based flow cytometry analysis relative to control; format: functional
MDA-MB-231 [19] = test: Effect on mitochondrial function in human MDA-MB-231 cells assessed as increase in MTRed CMXRos positive cells at IC50 incubated for 48 hrs by MitoTracker Red CMXRos staining based flow cytometry analysis relative to control; format: functional
[20] = tested on: Staphylococcus epidermidis; test: Antimicrobial activity against Staphylococcus epidermidis ATCC 35984 incubated for 18 hrs by twofold microdilution method; format: functional
[21] = Cytotoxicity against human HaCaT cells incubated for 72 hrs by MTT assay; format: toxicity, cell-based
A549 [22] = test: Induction of apoptosis in human A549 cells assessed as early apoptotic cells at IC50 incubated for 72 hrs by Annexin V-FITC staining based flow cytometry analysis (reference value: 1.68 %); format: functional
Staphylococcus aureus [23] = test: Antimicrobial activity against Staphylococcus aureus ATCC 25923 incubated for 18 hrs by twofold microdilution method; format: functional
A549 [24] = test: Induction of cell cycle arrest in human A549 cells assessed as accumulation of cells at SubG1 phase at IC50 incubated for 24 hrs by propidium iodide staining based flow cytometry analysis (reference value: 0.71 %); format: functional
Staphylococcus aureus [25] = test: Antimicrobial activity against Staphylococcus aureus NCTC 4163 incubated for 18 hrs by twofold microdilution method; format: functional
Mitochondrial membrane [26] = test: Induction of mitochondrial membrane potential loss in human MDA-MB-231 cells assessed as green fluorescence at IC50 incubated for 48 hrs MitoTracker Green FM staining based flow cytometry analysis (reference value: 8.86 %); format: cell membranes
[27] = Selectivity index, ratio of IC50 for cytotoxicity against chinese hamster V79 cells to IC50 for cytotoxicity against human MDA-MB-231 cells; format: toxicity, cell-based; conditions: V79 cells versus MDA-MB-231 cells, read-out: Ratio IC50
MDA-MB-231 [28] = test: Effect on mitochondrial mass in human MDA-MB-231 cells assessed as increase in MTGreen positive cells at IC50 incubated for 48 hrs by MitoTracker Green FM staining based flow cytometry analysis relative to control; format: functional
[29] = Selectivity index, ratio of IC50 for cytotoxicity against chinese hamster V79 cells to IC50 for cytotoxicity against human PC-3 cells; format: toxicity, cell-based; conditions: V79 cells versus PC-3 cells, read-out: Ratio IC50
A549 [30] = test: Induction of apoptosis in human A549 cells assessed as necrotic cells at IC50 incubated for 72 hrs by Annexin V-FITC staining based flow cytometry analysis (reference value: 0.97 %); format: functional
SW480 = test: Cytotoxicity against human SW480 cells incubated for 72 hrs by MTT assay; format: functional, cell-based; conditions: SW480, 72 h
[31] = Selectivity index, ratio of IC50 for cytotoxicity against chinese hamster V79 cells to IC50 for cytotoxicity against human A549 cells; format: toxicity, cell-based; conditions: V79 cells versus A549 cells, read-out: Ratio IC50
A549 [32] = test: Effect on mitochondrial mass in human A549 cells assessed as fold increase in mean fluorescence intensity at IC50 incubated for 48 hrs by MitoTracker Green FM staining based flow cytometry analysis relative to control; format: functional
Escherichia coli = test: Antimicrobial activity against Escherichia coli ATCC 25922 incubated for 18 hrs by twofold microdilution method; format: functional
PC-3 = test: Cytotoxicity against human PC-3 cells incubated for 72 hrs by MTT assay; format: functional, cell-based; conditions: PC-3, 72 h
MDA-MB-231 [33] = test: Effect on mitochondrial mass in human MDA-MB-231 cells assessed as fold increase in mean fluorescence intensity at IC50 incubated for 48 hrs by MitoTracker Green FM staining based flow cytometry analysis relative to control; format: functional

Row | Activity (Mitochondrial membrane [1]) [%] | MIC [9] [µg/mL] | MIC (Staphylococcus aureus [13]) [µg/mL] | Compound | selectivity ratio [2] | IC50 at 72 h [3] [nM] | Activity (A549 [4]) [%] | fold change (FC) (MDA-MB-231 [5]) | IC50 (SW-620) [nM] | Activity (MDA-MB-231 [6]) [%] | Activity (A549 [7]) | Activity (MDA-MB-231 [8]) [%] | Activity (MDA-MB-231 [10]) [%] | selectivity ratio [11] | Activity (A549 [12]) | Activity (MDA-MB-231 [14]) [%] | Activity (MDA-MB-231 [15]) | IC50 (A549 [16]) [nM] | Activity (MDA-MB-231 [17]) [%] | Activity (A549 [18]) [%] | Activity (MDA-MB-231 [19]) [%] | other results
1 | 58.3 | 2 | 1 | CC[C@@H](C(=O)[C@@H](C)[C@@H](O)[C@H](C)[C@@H]1O[C@@H]([C@@H](CC)C(=O)OCCCC[P+](c2ccccc2)(c2ccccc2)c2ccccc2)CC[C@@H]1C)[C@H]1O[C@]2(C=C[C@@H](O)[C@]3(CC[C@@](C)([C@H]4CC[C@](O)(CC)[C@H](C)O4)O3)O2)[C@H](C)C[C@@H]1C.[Br-] | 0.3 | 130 | 50 | 3 | 140 | 77.7 | 68.5% | 15.32 | 5.23 | 1.7 | 12% | 27.96 | inactive | 670 | 51.49 | 70 | 50 | MIC [20]: 1 µg/mL; IC50 at 72 h [21]: 1230 nM; Activity (A549 [22]): 59.17%; MIC (Staphylococcus aureus [23]): 2 µg/mL; Activity (A549 [24]): 6%; MIC (Staphylococcus aureus [25]): 2 µg/mL; Activity (Mitochondrial membrane [26]): 60.8%; selectivity ratio [27]: 0.2; Activity (MDA-MB-231 [28]): 90%; selectivity ratio [29]: 0.1; Activity (A549 [30]): 2.13%; IC50 (SW480): 390 nM; selectivity ratio [31]: 0.2; fold change (FC) (A549 [32]): 6; MIC (Escherichia coli): 256 µg/mL; IC50 (PC-3): 1350 nM; fold change (FC) (MDA-MB-231 [33]): 8
2 | 67.3 | 2 | 2 | CCCC[P+](CCCC)(CCCC)CCCCOC(=O)[C@H](CC)[C@H]1CC[C@H](C)[C@H]([C@@H](C)[C@H](O)[C@H](C)C(=O)[C@H](CC)[C@H]2O[C@]3(C=C[C@@H](O)[C@]4(CC[C@@](C)([C@H]5CC[C@](O)(CC)[C@H](C)O5)O4)O3)[C@H](C)C[C@@H]2C)O1.[Br-] | 1.2 | 590 | 50 | 5 | 520 | 76.2 | Active | 21.8 | 5.15 | 0.8 | Active | 39.5 | inactive | 860 | 33.55 | 70 | 90 | MIC [20]: 2 µg/mL; IC50 at 72 h [21]: 700 nM; Activity (A549 [22]): 52.57%; MIC (Staphylococcus aureus [23]): 2 µg/mL; Activity (A549 [24]): Active; MIC (Staphylococcus aureus [25]): 2 µg/mL; Activity (Mitochondrial membrane [26]): 70.7%; selectivity ratio [27]: 0.7; Activity (MDA-MB-231 [28]): 90%; selectivity ratio [29]: 0.4; Activity (A549 [30]): 12.94%; IC50 (SW480): 490 nM; selectivity ratio [31]: 0.7; fold change (FC) (A549 [32]): 6; MIC (Escherichia coli): > 256 µg/mL; IC50 (PC-3): 1450 nM; fold change (FC) (MDA-MB-231 [33]): 8
